The values that follow come from patent US20250108036A1, “COMPOSITIONS FOR REMOVING SENESCENT CELLS AND USES THEREOF” (LIFECEUTIX CO., LTD., priority 2021, published 2025).

The structures appear in SMILES notation.

Series [1] concerns foreskin cells in which aging was induced by doxorubicin. Kind of series: cell viability of senescent foreskin cells with caspase inhibitor QVD-Oph (Example 10, Table 61). The series is classed as cell-based, human. As to conditions: QVD-Oph 20 μM alone; doxorubicin-senescent foreskin cells.
The conditions of series [2]: read-out: MST Kd; cited from earlier work.
Another series deals with A549. Kind of series: CellTiter-Glo cell viability of senescent A549 cancer cells (Example 12, Table 67). Type of series: cell-based, human. As to conditions: Homo sapiens, A549, doxorubicin-induced senescent A549 cancer cells, CellTiter-Glo, read-out: Survival (%); for viability at 1.1 µM: 1.1 μM test compound; for viability at 10 µM: 10 μM test compound.
Series [3] has as its system foreskin cells in which senescence was induced by doxorubicin. In words: CellTiter-Glo cell viability of doxorubicin-induced senescent foreskin cells (Examples 1-2, 10, 11, 13; Tables 4, 63, 65). The series is classed as cell-based, human. To be noted: for viability at 1.1 µM: 1.1 μM test compound; for cell death, senescent cells: 30 μM, 3 days; for viability at 10 µM: 10 μM test compound; for viability at […]: […] test compound.
Protocol: (§2) After 3 days, cell viability was measured using CellTiter-Glo Luminescent Cell Viability Assay (Promega) or light microscopy.

Series [4] deals with HMGN1. Kind of series: HMGN1 ELISA in culture medium of foreskin cells (Examples 10, 11; Tables 62, 63, 64). To be noted: Homo sapiens, 30 μM test compound, doxorubicin-treated foreskin cells, DMSO = 100; read-out: HMGN1. Type of series: cell-based, human.
The subject of series [5] is HMGN1. In words: HMGN1 ELISA in culture medium of A549 cancer cells (Example 12, Table 66). The series is classed as cell-based, human. As to conditions: Homo sapiens, A549, doxorubicin-induced senescent A549 cells, test compound 30 μM, ELISA, DMSO = 100; read-out: HMGN1 (amount of HMGN1 secreted in the cell culture).
Series [6] deals with normally proliferating foreskin cells. In words: survival of normally proliferating foreskin cells treated with medium supernatant (secreted fluid) of compound-killed cells (Example 13, Table 68). As to conditions: after 3 days. The series is classed as cell-based, human. On the procedure: After treating cells with the test compound at a high concentration that induces the death of most cells in both non-senescence-induced and senescence-induced cells, the cells were washed three times with PBS to remove the test compound, and replaced with fresh medium and cultured for an additional 3 hours at the time when the compound has entered into the cell but has not yet induced cell death (approximately 1 to 3 hours after compound treatment). During this additional culture, by checking with an optical microscope, etc., the medium supernatants containing secreted fluid from normally proliferating and senescent cells in which cell death was induced were obtained. The obtained medium supernatant was replaced with the medium of normally proliferating and senescent cells, respectively, and cell survival rate was measured after 3 days.

For series [7], the system named is foreskin cells in which senescence was not induced. Kind of series: CellTiter-Glo growth of foreskin cells in which senescence was not induced (Tables 5, 12). As to conditions: 30 μM, 3 days.
Protocol: as §2
In a further series the test system is senescent foreskin cells. In words: survival of senescent foreskin cells treated with medium supernatant (secreted fluid) of compound-killed cells (Example 13, Tables 68, 69). As to conditions: supernatant-treated cells: senescent cells, after 3 days. Type of series: cell-based, human.
Series [8] in a line: open field test in obese mice given senescent cells killed by test compounds (Example 16, Table 72). Type of series: in vivo, C57BL6J mice. As to conditions: obese mice administered senescent cells whose death was induced by the test compound. The text has this: (§1) To obtain preadipocytes, groin fat tissue was collected from an 8-week-old female C57BL6J mouse (purchased from KRIBB Laboratory Animal Resource Center). The fat tissue was cut into small pieces and treated with collagenase to decompose the fat tissue, then centrifuged to collect the stromal vascular fraction (SVF) containing preadipocytes. It was washed with a washing medium (HBSS, purchased from GenDEPOT; 3.5% Albumin Fraction V, purchased from GenDEPOT; 100 U/ml Penicillin & Streptomycin, purchased from Invitrogen), mixed again, and extracted by filtering through a 100 μm nylon mesh. The isolated preadipocytes were cultured in the designated medium (DMEM, purchased from GenDEPOT; 20% FBS, purchased from GenDEPOT; 100 U/ml Penicillin & Streptomycin, purchased from Invitrogen). In the same manner as Example 1, cells were treated with doxorubicin at a concentration of 250 nM for 24 hours and cultured for an additional 21 days to induce cell senescence. Cells were treated with doxorubicin at a concentration of 250 nM for 24 hours and cultured for an additional 21 days to induce cell senescence. By treating the test compounds in the same manner as in Example 13, it was confirmed using an optical microscope that the death of most senescent cells was induced. The killed preadipocytes were washed using PBS (purchased from Welgene) and then mixed with PBS at a concentration of 5×10^5 cells/200 μl. It was administered subcutaneously to 8-week-old female C57BL6J mice (purchased from KRIBB Laboratory Animal Resource Center). At 7 and 10 days after administration of the killed senescent cells, 2 million senescent preadipocytes were mixed in 200 μl of PBS and administered into the abdominal cavity of mice. After administration of killed senescent cells, obesity was induced in mice with a high-fat diet (DIO) for 8 weeks in the same manner as in Example 9-1. Afterwards, the mouse was sacrificed in the same manner as in Example 7-2, total RNA was extracted from the groin fat tissue, and qRT-PCR was performed and analyzed using the synthesized cDNA. […] The mRNA amount of p16, MMP3, and IL6 without administration of senescent cells whose death was induced by the test compounds was calculated as 100%, and the amount of p16, MMP3, and IL6 after administration of the senescent cells whose death was induced by the test compounds was compared with them. Furthermore, an open field test was performed to analyze aging-related frailty in mice using the same method as Example 7-7. […] The amount of activity evaluation without administration of senescent cells whose death was induced by the test compounds was calculated as 100% and compared it with the amount of activity evaluation after administration of senescent cells whose death was induced by the test compounds.

The test system of another series is p16, MMP3, IL6. In words: p16, MMP3, IL6 mRNA qRT-PCR in groin fat of obese mice given senescent cells killed by test compounds (Example 16, Table 72). The series is classed as in vivo, C57BL6J mice. As to conditions: obese mice administered senescent cells whose death was induced by the test compound.
Text: as §1, with “compounds. […]” for “compounds.”

The mark [9] stands for this setting: Homo sapiens, 72 h, doxorubicin-induced senescent foreskin cells, CellTiter-Glo, 0 μM = 100, read-out: Survival (%).
The mark [10] stands for this setting: supernatant from compound-treated medium without cells (No Cells).
[11] abbreviates: supernatant from death-induced proliferating foreskin cells (compound 30 μM).
The mark [12] stands for this setting: supernatant from death-induced senescent foreskin cells (compound 30 μM).

Turning to `CC(C)[C@H](NC(=O)c1ccc2ccccc2n1)C(=O)N[C@@H](CC(=O)O)C(=O)COc1c(F)cccc1F` [QVD], in [1], the “Survial (%)” value was 105.1 (±4.7) %.
For the compound `CCC(C)C(C(=O)OC(C)(C)C)N1C(=O)c2ccccc2C1=O` (stereo not shown) [QW-050], the dissociation constant (Kd) in series [2] was 2430 nM.
Turning to `CC(C(=O)OC(C)(C)C)N1C(=O)c2ccccc2C1=O` (stereo not shown) [QW-023], the Kd in [2] was 1780 nM.
With `CC(C)(C)OC(=O)C(C)(C)N1C(=O)c2ccccc2C1=O` [QW-020], the Kd in series [2] is 2140 nM.
On to `CC(C)(C)OC(=O)CCCN1C(=O)c2ccccc2C1=O` [LX-407], for which the viability at 1.1 µM worked out at 29.4% with A549 and 15.9% in series [3] (setting [9]). In [2], the Kd is 399 nM. The results for the activity at 30 µM in the series on HMGN1 [4] and with HMGN1 [5] were 299% and 339%, respectively.
Consider `CC(C)(C)OC(=O)CCN1C(=O)c2ccccc2C1=O` [QW-011], for which the Kd in [2] is 926 nM.
Turning to `COc1ccc(N(C(=O)CCl)C(C(=O)NCCc2ccccc2)c2cccs2)cc1Cl` (stereo not shown) [LX-402], the “Survival (%)” value in [6] (setting [10]) was 97.1 (±5.9) %; in [6] (setting [11]) it was 78.1 (±3.8) %; in series [6] (setting [12]), 101.1 (±2.2) %; with senescent foreskin cells (setting [10]), 98 (±3.6) %; in the series on senescent foreskin cells (setting [11]) it was 31 (±1.2) %; in the series with senescent foreskin cells (setting [12]) it was 48.3 (±2.1) %. Further, the viability at 1.1 µM came out at 71.6% in the series with A549 and 67.2% in series [3] (setting [9]). The “cell death, normally proliferating cells” value in series [7] is “induced the death of most cells”. Besides, the “cell death, senescent cells” value in [3] is “induced the death of most cells”. In [3] (setting [9]), the viability at 10 µM worked out at 4.5%. The viability at […] in series [3] (setting [9]) was found to be 27%. Further, the activity at 30 µM with HMGN1 [4] stood at 298%; with HMGN1 [5], 340%.
On to `CC(C)(C)OC(=O)CCCCCN1C(=O)c2ccccc2C1=O` [QW-029], for which the Kd in [2] is 2100 nM.
`Cc1onc(C(=O)N2CCN(C(c3ccc(Cl)cc3)c3ccc(Cl)cc3)CC2)c1N(O)O` [LX-401]: the “Survival (%)” value is on record as 97.9 (±7.2) % in [6] (setting [10]); 88.1 (±4.2) % in [6] (setting [11]); 95.1 (±5.7) % in [6] (setting [12]); 101.1 (±5.5) % in the series with senescent foreskin cells (setting [10]); 48.2 (±4.2) % in the series with senescent foreskin cells (setting [11]); 42.2 (±4)^ % in the series with senescent foreskin cells (setting [12]). For the same compound, the viability at 1.1 µM with A549 came to 89.7%; in series [3] (setting [9]), 20.4%. Further, the viability at 10 µM in the series on A549 amounted to 42.1%; in [3] (setting [9]) it was 10.6%. For the same compound, the viability at 30 µM in the series with A549 (30 μM test compound) worked out at 16.8%; in [3] (Homo sapiens, 72 h, 30 μM test compound, doxorubicin-induced senescent foreskin cells, CellTiter-Glo, 0 μM = 100, read-out: Survival (%)) it was 7.8%. For the same compound, the “cell death, normally proliferating cells” value in series [7] is “induced the death of most cells”. Besides, in [3], the “cell death, senescent cells” value is “induced the death of most cells”. Also, the viability at […] in series [3] (setting [9]) was found to be 12.4%. Also, the activity at 30 µM in the series with HMGN1 [4] came to 263%; in the series on HMGN1 [5], 277%.
Take `CC(C)(C)OC(=O)C(N1C(=O)c2ccccc2C1=O)C(C)(C)C` (stereo not shown) [QW-034]: in series [2], the Kd is 979 nM.
In the case of `C[C@@H]1CC[C@@]23C[C@H](O)C(=O)[C@@]2(O)[C@]1(C)[C@H](OC(=O)CCl)C[C@@H](C1=CCn2c(=O)n(-c4ccccc4)c(=O)n2C1)[C@@H]3C` [LX-1801, (2S,3aS,4S,5R,7R,8S,8aS,11R)-7-(1,3-Dioxo-2-phenyl-2,3,5,8-tetrahydro-1H-[1,2,4]triazolo[1,2-a]pyridazin-6-yl)-2,3a-dihydroxy-4,8,11-trimethyl-3-oxooctahydro-1H-4,8a-propanoazulen-5-yl 2-Chloroacetate], in the series on A549, the viability at 1.1 µM came out at 60.6% and the viability at 10 µM is 25.1%. Also, in series [8], the “Open Field Test Time in Center (%)” value was 173.4 (±18.6) %. The viability at 1.1 µM in series [3] (setting [9]) was 8.7%. Also, in the series with HMGN1 [4], the activity at 30 µM amounted to 291%. Also, in the series with p16, MMP3, IL6, the “IL6 mRNA (%)” value was 56.4 (±12.4) %, the “MMP3 mRNA (%)” value is reported as 67.8 (±13.1) % and the “p16 mRNA (%)” value is on record as 62.5 (±9.4) %. Moreover, the activity at 30 µM in the series with HMGN1 [5] was 295%.
